This passage reports EC50 results from patent US20240309003A1, “HETEROCYCLIC COMPOUNDS AS TRIGGERING RECEPTOR EXPRESSED ON MYELOID CELLS 2 AGONISTS AND METHODS OF USE” (Vigil Neuroscience, Inc., priority 2021, published 2024).

Where only a bound is given, the exact number is not on record here.

T1 sequence (Q9NZC2 19-230): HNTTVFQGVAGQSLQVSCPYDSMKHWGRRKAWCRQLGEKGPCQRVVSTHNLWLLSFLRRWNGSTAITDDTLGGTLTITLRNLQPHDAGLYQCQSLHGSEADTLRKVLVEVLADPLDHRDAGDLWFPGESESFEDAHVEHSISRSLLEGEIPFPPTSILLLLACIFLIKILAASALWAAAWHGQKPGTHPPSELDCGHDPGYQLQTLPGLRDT
T1 sequence (O43914 22-113 partner): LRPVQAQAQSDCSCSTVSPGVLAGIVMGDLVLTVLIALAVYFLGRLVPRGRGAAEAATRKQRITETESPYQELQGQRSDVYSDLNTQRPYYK

One experiment addresses T1, human TREM2 (Homo sapiens, UniProt Q9NZC2).
T1 construct: expressed in transfected cells; host or cells: HEK293T
Nature of the experiment: TREM2 agonist potency by cellular phosphorylation of Syk (AlphaLisa) in HEK293T-hTREM2 cells. Format: cell-based. The settings on record: HEK293 cells expressing human TREM2 and DAP12, Table D. A digest of the protocol: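 Agonist EC50 from a variable-slope four-parameter fit of % activation, based on AlphaLisa phospho-Syk levels in lysates. Cells: HEK293T-hTREM2 (with DAP12), treated 45 min at room temperature with compound in assay buffer.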
A general note: Alpha assays give light when donor and acceptor beads are brought close together.
Take `Cc1nc2nc([C@H]3CCO[C@@H](c4cnn(C5CC5)c4)C3)nc(C3C[C@@H](F)[C@@H](F)C3)c2nc1C` (stereo partly drawn) [Example 245, 2-((2R,4S)-2-(1-cyclopropyl-1H-pyrazol-4-yl)tetrahydro-2H-pyran-4-yl)-4-((3R,4S)-3,4-difluorocyclopentyl)-6,7-dimethylpteridine]: the EC50 (as a rule, the concentration needed to bring the measured effect to its halfway point) fell in the range of 500 to 3000 nM.

With `CC(=O)OCc1nc2c(-c3ccc(F)cc3F)nc([C@@H]3CCO[C@@H](c4cnn(C5CC5)c4)C3)cc2nc1C` [Example 246, (7-((2R,4R)-2-(1-cyclopropyl-1H-pyrazol-4-yl)tetrahydro-2H-pyran-4-yl)-5-(2,4-difluorophenyl)-2-methylpyrido[3,4-b]pyrazin-3-yl)methylacetate], the 50% effective concentration (EC50) is 3000 to 100000 nM.

`Cc1nc2nc([C@H]3CCO[C@@H](c4cnn(C5CC5)c4)C3)nc(C3CCCCC3)c2nc1C` [Example 247, 4-cyclohexyl-2-((2R,4S)-2-(1-cyclopropyl-1H-pyrazol-4-yl)tetrahydro-2H-pyran-4-yl)-6,7-dimethylpteridine]: the EC50 was < 50 nM.

The experiment is the same for the next values; noted with them: HEK293 cells expressing human TREM2 and DAP12, Table D-2.
In the case of `Cc1nc2nc(N3C[C@@H](C)O[C@@H](c4cnn(C5CC5)c4)C3)cc(-c3ccc(Cl)cc3F)c2nc1C` [Example I-1076, (2S,6R)-4-[8-(4-chloro-2-fluoro-phenyl)-2,3-dimethyl-pyrido[2,3-b]pyrazin-6-yl]-2-(1-cyclopropylpyrazol-4-yl)-6-methyl-morpholine], the EC50 was < 50 nM. On the same count and under the same terms, the same measure for `Cc1nc2nc(-c3ccc(Cl)cc3F)cc(N3C[C@@H](C)O[C@@H](c4cnn(C5CC5)c4)C3)c2nc1C` [Example I-1081, (2S,6R)-4-[6-(4-chloro-2-fluoro-phenyl)-2,3-dimethyl-pyrido[2,3-b]pyrazin-8-yl]-2-(1-cyclopropylpyrazol-4-yl)-6-methyl-morpholine]: 500 to 3000 nM; for `Cc1cc(-c2nc(N3C[C@@H](C)O[C@@H](c4cnn(C5CC5)c4)C3)nc3nc(C)c(C)nc23)on1` [Example I-1086, (2S,6R)-2-(1-cyclopropylpyrazol-4-yl)-4-[6,7-dimethyl-4-(3-methylisoxazol-5-yl)pteridin-2-yl]-6-methyl-morpholine]: 500 to 3000 nM. On the same count and under the same terms, the same measure for `Cc1nc2nc([C@H]3CCO[C@@H](c4cnn(C5CC5)c4)C3)nc(-c3ccc(Cl)cc3F)c2nc1C(F)F` [Example I-1099, 4-(4-chloro-2-fluoro-phenyl)-2-[(2R,4S)-2-(1-cyclopropylpyrazol-4-yl)tetrahydropyran-4-yl]-6-(difluoromethyl)-7-methyl-pteridine]: < 50 nM; for `Cc1nc2nc(N3C[C@@H](C)O[C@@H](c4cnn(C5CC5)c4)C3)cc(C#CC3CC3)c2nc1C` [Example I-1104, (2S,6R)-4-[8-(2-cyclopropylethynyl)-2,3-dimethyl-pyrido[2,3-b]pyrazin-6-yl]-2-(1-cyclopropylpyrazol-4-yl)-6-methyl-morpholine]: 500 to 3000 nM. Same read-out and setting: the same measure for `Cc1nc2cc([C@H]3CCO[C@@H](c4cnn(C5CC5)c4)C3)nc(-c3ccc(F)cc3F)c2nc1CO` [Example I-1119, (7-((2R,4S)-2-(1-cyclopropyl-1H-pyrazol-4-yl)tetrahydro-2H-pyran-4-yl)-5-(2,4-difluorophenyl)-2-methylpyrido[3,4-b]pyrazin-3-yl)methanol]: 50 to 500 nM; for `[2H]C([2H])([2H])c1nc2nc(N3C[C@@H](C)O[C@@H](c4cnn(C5CC5)c4)C3)nc(-c3ccc(F)cc3F)c2nc1C([2H])([2H])[2H]` [Example I-1129, (2S,6R)-2-(1-cyclopropylpyrazol-4-yl)-4-[4-(2,4-difluorophenyl)-6,7-bis(trideuteriomethyl)pteridin-2-yl]-6-methyl-morpholine]: < 50 nM; for `Cc1nc2nc([C@H]3CCO[C@@H](c4cnn(C5CC5)c4)C3)nc(-c3ccc(C4CCC4)cc3F)c2nc1C` [Example I-1182, 4-(4-cyclobutyl-2-fluoro-phenyl)-2-[(2R,4S)-2-(1-cyclopropylpyrazol-4-yl)tetrahydropyran-4-yl]-6,7-dimethyl-pteridine]: 500 to 3000 nM. On to `Cc1nc2nc([C@H]3CCO[C@@H](c4cnn(C5CC5)c4)C3)nc(-c3ccc(C4CC4)cc3F)c2nc1C` [Example I-1187, 2-((2R,4S)-2-(1-cyclopropyl-1H-pyrazol-4-yl)tetrahydro-2H-pyran-4-yl)-4-(4-cyclopropyl-2-fluorophenyl)-6,7-dimethylpteridine], for which the EC50 is 50 to 500 nM. The same measure, in the same setting: then `Cc1nc2nc([C@H]3CCO[C@@H](c4cnn(C5CC5)c4)C3)nc(-c3ccc(C(C)C)cc3F)c2nc1C` [Example I-1192], with 500 to 3000 nM. Consider `CCCc1ccc(-c2nc([C@H]3CCO[C@@H](c4cnn(C5CC5)c4)C3)nc3nc(C)c(C)nc23)c(F)c1` [Example I-1197], for which the EC50 was in the range of 50 to 500 nM. The same measure, in the same setting: then `COC1(c2nc(-c3ccc(Cl)cc3F)c3nc(C)c(C)nc3n2)CCO[C@@H](c2cnn(C3CC3)c2)C1` (stereo partly drawn) [Example I-1210, 4-(4-chloro-2-fluorophenyl)-2-((2R)-2-(1-cyclopropyl-1H-pyrazol-4-yl)-4-methoxytetrahydro-2H-pyran-4-yl)-6,7-dimethylpteridine], with 500 to 3000 nM; and `Cc1nc2nc([C@H]3CCO[C@@H](c4cnn(C5CC5)c4)C3)nc(-c3ccc(C(F)F)cc3F)c2nc1C` [Example I-1216, 2-[(2R,4S)-2-(1-cyclopropylpyrazol-4-yl)tetrahydropyran-4-yl]-4-[4-(difluoromethyl)-2-fluoro-phenyl]-6,7-dimethyl-pteridine], with < 50 nM. The same measure, in the same setting: then `COCn1cc([C@H]2CN(c3nc(-c4ccc(F)cc4F)c4cc(C)c(C)nc4n3)C[C@@H](C)O2)cn1` [Example I-1226, (2S,6R)-4-[4-(2,4-difluorophenyl)-6,7-dimethyl-pyrido[2,3-d]pyrimidin-2-yl]-2-[1-(methoxymethyl)pyrazol-4-yl]-6-methyl-morpholine], with < 50 nM.

`Cc1cc2c(-c3ccc(F)cc3F)nc(N3C[C@@H](C)O[C@@H](c4cn(C)cn4)C3)nc2nc1C` [Example I-1260, (2R,6R)-4-[4-(2,4-difluorophenyl)-6,7-dimethyl-pyrido[2,3-d]pyrimidin-2-yl]-2-methyl-6-(1-methylimidazol-4-yl)morpholine; formic acid]: the EC50 was 500 to 3000 nM. The compound `Cc1nc2nc(N3C[C@@H](C)O[C@@H](c4ccn(C5CC5)n4)C3)nc(-c3ccc(F)cc3F)c2nc1C` [Example I-1265, (2R,6R)-2-(1-cyclopropylpyrazol-3-yl)-4-[4-(2,4-difluorophenyl)-6,7-dimethyl-pteridin-2-yl]-6-methyl-morpholine] had an EC50 of 50 to 500 nM. In turn, `Cc1cc([C@@H]2CN(c3nc(-c4ccc(Cl)cc4F)c4nc(C)c(C)nc4n3)CCO2)no1` [Example I-1270, 4-[4-(4-chloro-2-fluoro-phenyl)-6,7-dimethyl-pteridin-2-yl]-2-(5-methylisoxazol-3-yl)morpholine] registered an EC50 of 50 to 500 nM. `Cc1nc2nc([C@H]3CCO[C@@H](c4cnn(C5CC5)c4)C3)nc(-c3ccc(Cl)cc3F)c2nc1OCCF` [Example I-1283, 4-(4-chloro-2-fluoro-phenyl)-2-[(2R,4S)-2-(1-cyclopropylpyrazol-4-yl)tetrahydropyran-4-yl]-6-(2-fluoroethoxy)-7-methyl-pteridine]: the EC50 was < 50 nM.

Regarding `CCCc1nc2c(-c3ccc(F)cc3F)nc(N3C[C@@H](C)O[C@@H](c4cnn(C5CC5)c4)C3)nc2nc1C` [Example I-1293], the concentration for a half-maximal effect (EC50) is < 50 nM.
